Test results taken from ChEMBL document CHEMBL5346901, “Discovery of potent Plasmodium falciparum protein kinase 6 (PfPK6) inhibitors with a type II inhibitor pharmacophore” (Eur J Med Chem, 2023).
≈ marks a conversion by molar mass, not a printed value. Calls of active or inactive are those of the source. No cut-off for these calls is given here.

Experiments:
[1] = system: Plasmodium falciparum; assay: Antimalarial activity against blood stage Plasmodium falciparum 3D7 assessed as reduction in parasite growth incubated for 72 hrs by SYBR Green dye based fluorescence assay; assay type: functional, organism-based; settings: for EC50: 3D7, 72 h
[2] = system: HepG2; assay: Cytotoxicity against human HepG2 cells assessed as reduction in cell viability by CellTiter-Glo assay; assay type: toxicity, cell-based
[3] = system: Plasmodium berghei; assay: Antimalarial activity against liver stage Plasmodium berghei ANKA sporozoites in human HepG2 cells assessed as reduction in parasite load measured after 44 hrs by […] reagent based […] analysis; assay type: functional, organism-based
[4] = system: HepG2; assay: Cytotoxicity against human HepG2 cells infected with liver stage Plasmodium berghei ANKA sporozoites assessed as reduction in cell viability measured after 44 hrs by […] assay; assay type: toxicity, cell-based; settings: hepg2, 44 h
[5] = Kinetic solubility of the compound at pH 7.4; assay type: physicochemical; settings: buffer, read-out: Kinetic_solubility
[6] = Apparent permeability of compound by PAMPA assay; assay type: ADME
[7] = Microsomal stability in human liver microsomes assessed as parent compound remaining at 5 uM measured after 30 mins in presence of NADPH; assay type: ADME, Microsome; settings: 0.5 h
[8] = Microsomal stability in mouse liver microsomes assessed as parent compound remaining at 5 uM measured after 30 mins in presence of NADPH; assay type: ADME, Microsome; settings: 0.5 h
[9] = system: Plasmodium falciparum; assay: Inhibition of plasmodium falciparum ARK1 assessed as remaining activity at 1 uM incubated for 2 hrs by luciferin-based luminescence assay relative to control
[10] = system: Plasmodium falciparum; assay: Inhibition of plasmodium falciparum ARK3 assessed as remaining activity at 1 uM incubated for 2 hrs by luciferin-based luminescence assay relative to control
[11] = system: Plasmodium falciparum; assay: Inhibition of plasmodium falciparum CDPK5 assessed as remaining activity at 1 uM incubated for 2 hrs by luciferin-based luminescence assay relative to control
[12] = biological target: T1, Glycogen synthase kinase 3 (Plasmodium falciparum (isolate 3D7)) (UniProt O77344); assay: Inhibition of plasmodium falciparum GSK3 assessed as remaining activity at 1 uM incubated for 2 hrs by luciferin-based luminescence assay relative to control
T1 sequence (whole entry): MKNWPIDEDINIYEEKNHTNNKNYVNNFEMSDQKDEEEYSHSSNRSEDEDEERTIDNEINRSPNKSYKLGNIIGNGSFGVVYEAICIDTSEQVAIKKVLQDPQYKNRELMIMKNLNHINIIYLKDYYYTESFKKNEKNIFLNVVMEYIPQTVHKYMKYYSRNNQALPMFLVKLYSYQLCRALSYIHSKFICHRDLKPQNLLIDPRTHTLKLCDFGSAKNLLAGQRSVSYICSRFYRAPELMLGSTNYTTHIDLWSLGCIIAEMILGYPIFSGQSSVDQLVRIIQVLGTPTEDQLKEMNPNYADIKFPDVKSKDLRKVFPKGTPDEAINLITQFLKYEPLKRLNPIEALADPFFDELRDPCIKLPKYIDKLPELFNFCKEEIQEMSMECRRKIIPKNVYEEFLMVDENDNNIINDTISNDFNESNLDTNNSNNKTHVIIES

[13] = system: Plasmodium falciparum; assay: Inhibition of plasmodium falciparum NEK1 assessed as remaining activity at 1 uM incubated for 2 hrs by luciferin-based luminescence assay relative to control
[14] = system: Plasmodium falciparum; assay: Inhibition of plasmodium falciparum NEK3 assessed as remaining activity at 1 uM incubated for 2 hrs by luciferin-based luminescence assay relative to control
[15] = system: Plasmodium falciparum; assay: Inhibition of plasmodium falciparum PK5 assessed as remaining activity at 1 uM incubated for 2 hrs by luciferin-based luminescence assay relative to control
[16] = system: Plasmodium falciparum; assay: Inhibition of plasmodium falciparum PK9 assessed as remaining activity at 1 uM incubated for 2 hrs by luciferin-based luminescence assay relative to control
[17] = system: Plasmodium falciparum; assay: Inhibition of plasmodium falciparum PKB assessed as remaining activity at 1 uM incubated for 2 hrs by luciferin-based luminescence assay relative to control
[18] = system: Plasmodium falciparum; assay: Inhibition of plasmodium falciparum CDPK2 assessed as remaining activity at 1 uM incubated for 2 hrs by luciferin-based luminescence assay relative to control
[19] = biological target: Calcium-dependent protein kinase 1 (Plasmodium falciparum) (UniProt P62344); assay: Inhibition of plasmodium falciparum CDPK1 assessed as remaining activity at 1 uM by Kinomescan method relative to control; settings: time 2.0 hrs
Calcium-dependent protein kinase 1 (Plasmodium falciparum), sequence (P62344 2-524 limits assumed): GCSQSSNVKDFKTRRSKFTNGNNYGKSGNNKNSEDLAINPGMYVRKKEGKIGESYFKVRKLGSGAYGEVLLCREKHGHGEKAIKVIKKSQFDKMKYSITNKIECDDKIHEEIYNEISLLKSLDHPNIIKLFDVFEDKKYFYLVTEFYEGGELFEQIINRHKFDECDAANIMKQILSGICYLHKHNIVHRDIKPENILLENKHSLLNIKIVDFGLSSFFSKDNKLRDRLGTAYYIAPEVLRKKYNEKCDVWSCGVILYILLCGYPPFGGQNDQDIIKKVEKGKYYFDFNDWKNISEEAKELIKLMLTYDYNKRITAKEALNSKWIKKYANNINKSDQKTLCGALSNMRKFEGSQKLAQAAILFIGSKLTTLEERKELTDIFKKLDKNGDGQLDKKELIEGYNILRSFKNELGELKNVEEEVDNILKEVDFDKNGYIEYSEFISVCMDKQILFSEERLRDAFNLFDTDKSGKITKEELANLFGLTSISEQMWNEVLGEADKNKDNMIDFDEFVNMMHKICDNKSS

[20] = system: Plasmodium falciparum; assay: Inhibition of plasmodium falciparum PK5 assessed as remaining activity at 1 uM by Kinomescan method relative to control
[21] = biological target: T2, Cdk-related protein kinase 6 (Plasmodium falciparum) (UniProt O77239); assay: Inhibition of plasmodium falciparum PK6 assessed as remaining activity at 1 uM incubated for 2 hrs by luciferin-based luminescence assay relative to control
T2 sequence (whole entry): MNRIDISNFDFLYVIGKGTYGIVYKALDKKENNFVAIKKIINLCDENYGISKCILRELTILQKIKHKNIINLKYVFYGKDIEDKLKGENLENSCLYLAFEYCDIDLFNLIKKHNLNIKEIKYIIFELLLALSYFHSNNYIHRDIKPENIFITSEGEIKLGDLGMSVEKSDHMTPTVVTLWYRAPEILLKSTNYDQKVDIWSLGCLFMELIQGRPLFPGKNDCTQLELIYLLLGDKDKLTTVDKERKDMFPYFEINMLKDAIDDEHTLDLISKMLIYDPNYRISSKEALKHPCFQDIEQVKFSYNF

[22] = biological target: T3, Cdk-related protein kinase 6 (Plasmodium falciparum, UniProt O77239)
T3 sequence (O77239 whole entry): T2 sequence (whole entry)
Description: Inhibition of N-terminal 6His-tagged plasmodium falciparum PK6 expressed in Escherichia coli BL21(DE3) incubated for 15 mins in presence of [gamma-32p]ATP and ATP by SDS-PAGE based autoradiography analysis

## COc1cc2nccc(Oc3ccc(NC(=O)Nc4ccc(OC5CCN(C)CC5)c(C(F)(F)F)c4)c(F)c3)c2cc1OC
[1]
  EC50: 40 nM
[2]
  CC50: 1000 nM
[3]
  Activity: inactive
[4]
  CC50: 410 nM
[5]
  solubility kinetic: 1.5 µM (≈ 0.922 µg/mL)
[6]
  Papp: < 0.513 10^-6 cm/s
[7]
  Stability: 88.6%
[8]
  Stability: 69.7%
[9]
  Activity: 94%
[10]
  Activity: 97%
[11]
  Activity: 25%
[12]
  Activity: 30%
[13]
  Activity: 100%
[14]
  Activity: 6%
[15]
  Activity: 94%
[16]
  Activity: 79%
[17]
  Activity: 20%
[18]
  Activity: 78%

## COc1cc2nccc(Oc3ccc(NC(=O)Nc4ccc(CC5CCNCC5)c(C(F)(F)F)c4)c(F)c3)c2cc1OC
[1]
  EC50: 39 nM
[2]
  CC50: 1290 nM
[3]; HepG2, 44 h
  EC50: 220 nM
[4]
  CC50: 1290 nM
[5]
  solubility kinetic: 2.1 µM (≈ 1.26 µg/mL)
[6]
  Papp: 0.734 10^-6 cm/s
[7]
  Stability: 98.1%
[9]
  Activity: 100%
[10]
  Activity: 87%
[11]
  Activity: 27%
[12]
  Activity: 34%
[13]
  Activity: 100%
[14]
  Activity: 7%
[15]
  Activity: 94%
[16]
  Activity: 89%
[17]
  Activity: 21%
[19]
  Activity: 1.1%
[20]
  Activity: 80%
[18]
  Activity: 64%

## COc1cc2nccc(Oc3ccc(NC(=O)Nc4ccc(C=C5CCNCC5)cc4)c(F)c3)c2cc1OC
[1]
  EC50: 140 nM
[2]
  CC50: 2570 nM
[3]
  Activity: inactive
[4]
  CC50: 6620 nM
[5]
  solubility kinetic: 7.4 µM (≈ 3.91 µg/mL)
[6]
  Papp: < 0.709 10^-6 cm/s
[7]
  Stability: 88.6%
[8]
  Stability: 86.7%
[9]
  Activity: 98%
[11]
  Activity: 98%
[12]
  Activity: 100%
[13]
  Activity: 100%
[14]
  Activity: 84%
[15]
  Activity: 100%
[17]
  Activity: 38%
[18]
  Activity: 96%

## O=C(Nc1ccc(F)cc1F)Nc1ccc(Oc2ncnc3ccsc23)cc1F
[21]
  Activity: 61%

## O=C(Nc1ccc(F)cc1F)Nc1ccc(Oc2ccnc3[nH]ccc23)cc1F
[21]
  Activity: 14%

## COc1ccc(NC(=O)Nc2ccc(F)cc2F)c(F)c1
[21]
  Activity: 100%

## COc1cc2nccc(Oc3ccc(NC(=O)Nc4ccc(CN5CCN(C)CC5)c(C(F)(F)F)c4)c(F)c3)c2cc1OC
[1]
  EC50: 110 nM
[2]
  CC50: 1000 nM
[5]
  solubility kinetic: 2.1 µM (≈ 1.29 µg/mL)
[6]
  Papp: 2.57 10^-6 cm/s
[19]
  Activity: 1.6%

## COc1cc2nccc(Oc3ccc(NC(=O)Nc4ccccc4F)c(F)c3)c2cc1OC
[21]
  Activity: 1%

## O=C(Nc1ccc(F)cc1F)Nc1ccc(Oc2ncnc3[nH]ccc23)cc1F
[21]
  Activity: 54%

## Cn1cnc2c(NCc3ccccc3)nc(NCCO)nc21 [OLOMOUCINE]
[22]
  IC50: 180000 nM

## O=C(Nc1ccc(F)cc1F)Nc1ccc(Oc2ccncn2)cc1F
[21]
  Activity: 84%

## O=C(Nc1ccc(O)cc1F)Nc1ccc(F)cc1F
[21]
  Activity: 100%

## COc1cc2ncnc(Oc3ccc(NC(=O)Nc4ccc(F)cc4F)c(F)c3)c2cc1OC
[21]
  Activity: 6%

## COc1cc2nccc(Oc3ccc(N)cc3)c2cc1OC
[21]
  Activity: 95%

## COc1cc2nccc(Oc3ccc(NC(=O)Nc4ccccc4)c(F)c3)c2cc1OC
[21]
  Activity: 1%

## COc1cc2nccc(Oc3ccc(NC(=O)Nc4ccccc4)cc3)c2cc1OC
[21]
  Activity: 4%

## O=C(Nc1ccc(F)cc1F)Nc1ccc(Oc2ccnc3sccc23)cc1F
[21]
  Activity: 43%

## COc1cc2nccc(Oc3ccc(NC(=O)Nc4ccc(CC5CCNCC5)cc4)c(F)c3)c2cc1OC
[1]
  EC50: 160 nM
[2]
  CC50: 4390 nM
[3]
  Activity: inactive
[4]
  CC50: 3290 nM
[5]
  solubility kinetic: 10.9 µM (≈ 5.78 µg/mL)
[6]
  Papp: < 0.669 10^-6 cm/s
[8]
  Stability: 85.8%
[9]
  Activity: 97%
[11]
  Activity: 91%
[12]
  Activity: 97%
[13]
  Activity: 100%
[14]
  Activity: 82%
[15]
  Activity: 97%
[16]
  Activity: 99%
[17]
  Activity: 30%
[19]
  Activity: 51%
[20]
  Activity: 84%
[18]
  Activity: 88%

## COc1cc2nccc(Oc3ccc(NC(=O)Nc4ccc(F)cc4F)c(F)c3)c2cc1OC
[1]
  Activity: inactive
[5]
  solubility kinetic: 0.7 µM (≈ 0.329 µg/mL)

## O=C(Nc1ccc(F)cc1F)Nc1ccc(Oc2ccncc2)cc1F
[21]
  Activity: 50%

## O=C(Nc1ccc(F)cc1F)Nc1ccc(Oc2ccnc(Cl)n2)cc1F
[21]
  Activity: 98%

## O=C(Nc1ccc(F)cc1F)Nc1ccc(Oc2ccnc3cc4c(cc23)OCCO4)cc1F
[21]
  Activity: 30%

## COCCOc1cc2nccc(Oc3ccc(NC(=O)Nc4ccc(F)cc4F)c(F)c3)c2cc1OCCOC
[21]
  Activity: 2%
